# What was measured:
# Bacillus subtilis = experiment: MIC, microdilution method, reference strains; type: cell-based; conditions: read after 24/48 hours of incubation at 37° C.
# Experimental: (§1) Antibacterial activity was measured using a standard microdilution method, showing the minimum inhibitory concentration (MIC) of the test sample which results in inhibition of bacterial growth. Disposable microtiter plates were used for the tests. Samples are dissolved in the brain-heart infusion broth (HiMedia Laboraties Pvt. Ltd., Czech Republic), and Mueller Hinton broth (HiMedia Laboraties, see above) at a final concentration ranging from 200 μg/ml to 1.5625 μg/ml. Plates were inoculated with a standard amount of test bacteria-inoculum density in the hole corresponds to 10^5-6 CFU/ml (colony forming units/ml). MIC values are read after 24/48 hours of incubation at 37° C. as the minimum inhibitory concentration of the test substance at which the growth of bacteria is inhibited. Minimal bactericidal concentration (MBC) is defined as the minimum concentration of the sample needed to achieve irreversible inhibition, therefore killing the bacteria after a defined time of incubation. The MBC was determined by inoculation method. 10 μl from the wells in a microplate with a defined concentration of test substance is taken with an applicator, and inoculated onto the surface of blood agar (Trios, Czech Republic) and Sabouraud agar (Trios, CR). The MBC was determined as the lowest concentration that inhibited visible growth of the bacteria used. Standard reference bacterial strains (Escherichia coli CCM 3954, Pseudomonas aeruginosa CCM 3955, Enterococcus faecalis CCM 4224, Staphylococcus aureus CCM 4223) were obtained from the Czech Collection of Microorganisms (CCM) at […] University in Brno. Streptococcus agalactiae, Bacillus subtilis were obtained from the University Hospital Olomouc. The tested microorganisms were maintained in cryobanks (ITEST plus, Czech Republic) at -80° C.
# [1] = test system: Enterococcus faecalis CCM 4224; experiment: MIC, microdilution method, reference strains; type: cell-based; conditions: CCM4224, read after 24/48 hours of incubation at 37° C.
# Experimental: as §1
# [2] = test system: Escherichia coli CCM 3954; experiment: MIC, microdilution method, reference strains; type: cell-based; conditions: CCM3954, read after 24/48 hours of incubation at 37° C.
# Experimental: as §1
# [3] = test system: Pseudomonas aeruginosa CCM 3955; experiment: MIC, microdilution method, reference strains; type: cell-based; conditions: CCM3955, read after 24/48 hours of incubation at 37° C.
# Experimental: as §1
# [4] = test system: Staphylococcus aureus CCM 4223; experiment: MIC, microdilution method, reference strains; type: cell-based; conditions: CCM4223, read after 24/48 hours of incubation at 37° C.
# Experimental: as §1
# Streptococcus agalactiae = experiment: MIC, microdilution method, reference strains; type: cell-based; conditions: read after 24/48 hours of incubation at 37° C.
# Experimental: as §1
# [5] = test system: Acinetobacter baumanii A3-08; experiment: MIC, microdilution method; type: cell-based; conditions: Acinetobacter baumannii, A308; read after 24/48 hours of incubation at 37° C.
# Experimental: (§2) Antibacterial activity was measured using a standard microdilution method, showing the minimum inhibitory concentration (MIC) of the test sample which results in inhibition of bacterial growth. Disposable microtiter plates were used for the tests. Samples are dissolved in the brain-heart infusion broth (HiMedia Laboraties Pvt. Ltd., Czech Republic), and Mueller Hinton broth (HiMedia Laboraties, see above) at a final concentration ranging from 200 μg/ml to 1.5625 μg/ml. Plates were inoculated with a standard amount of test bacteria—inoculum density in the hole corresponds to 10^5-6 CFU/ml (colony forming units/ml). MIC values are read after 24/48 hours of incubation at 37° C. as the minimum inhibitory concentration of the test substance at which the growth of bacteria is inhibited. Minimal bactericidal concentration (MBC) is defined as the minimum concentration of the sample needed to achieve irreversible inhibition, therefore killing the bacteria after a defined time of incubation. The MBC was determined by inoculation method. 10 μl from the wells in a microplate with a defined concentration of test substance is taken with an applicator, and inoculated onto the surface of blood agar (Trios, Czech Republic) and Sabouraud agar (Trios, CR). The MBC was determined as the lowest concentration that inhibited visible growth of the bacteria used.
# [6] = test system: Burkholderia multivorans ATCC BAA-247; experiment: MIC, microdilution method; type: cell-based; conditions: ATCCBAA247, read after 24/48 hours of incubation at 37° C.
# Experimental: as §2
# [7] = test system: Salmonella Enteritidis S2-25; experiment: MIC, microdilution method; type: cell-based; conditions: Salmonella enterica, read after 24/48 hours of incubation at 37° C.
# Experimental: as §2
# [8] = test system: Stenotrophomonas matophilia S2-23; experiment: MIC, microdilution method; type: cell-based; conditions: S223, read after 24/48 hours of incubation at 37° C.
# Experimental: as §2
# E. coli 16702 = experiment: MIC, microdilution method, resistant strains; type: cell-based; conditions: Escherichia coli, resistant strain, clinical isolate
# Experimental: as §2
# E. faecium VanA 419ana = experiment: MIC, microdilution method, resistant strains; type: cell-based; conditions: Enterococcus faecium, VANA419ANA; vancomycin-resistant strain, clinical isolate
# Experimental: as §2
# P. aeruginosa 16575 = experiment: MIC, microdilution method, resistant strains; type: cell-based; conditions: Pseudomonas aeruginosa, resistant strain, clinical isolate
# Experimental: as §2
# S. aureus MRSA 4591 = experiment: MIC, microdilution method, resistant strains; type: cell-based; conditions: Staphylococcus aureus, methicillin-resistant strain, clinical isolate
# Experimental: as §2
# S. epidermidis 8700B = experiment: MIC, microdilution method, resistant strains; type: cell-based; conditions: Staphylococcus epidermidis, methicilin-resistant strain, clinical isolate
# Experimental: as §2
# S. haemolyticus 16568 = experiment: MIC, microdilution method, resistant strains; type: cell-based; conditions: Staphylococcus haemolyticus, fluoroquinolone-resistant strain, clinical isolate
# Experimental: as §2
# rabbits = experiment: OECD404 test for skin irritation in rabbits; type: in vivo
# mice = experiment: Maximum tolerated dose in mice, oral administration; type: in vivo
# Experimental: Maximum tolerated dose in mice was very high, for the compound of Example 3 and oral administration the maximum tolerated dose was 1500 mg/kg of bodyweight.
structure (smiles),measurement,setting,value
"CCCCCCCCCCCCCCOP(=O)(CCN(CCN)CCN)OC[C@H]1O[C@@H](n2ccc(=O)[nH]c2=O)C(O)C1O (stereo partly shown) [Example 7, Tetradecyl-uridine-5′-yl-2-N-bis(3-aminoethyl)-2-aminoethyl phosphonate]",MIC,Bacillus subtilis,6.25 µg/mL
same,MIC,[1],100 µg/mL
same,MIC,[2],12.5 µg/mL
same,MIC,[3],3.12 µg/mL
same,MIC,[4],25 µg/mL
same,MIC,Streptococcus agalactiae,6.25 µg/mL
same,MIC,[5],25 µg/mL
same,MIC,[6],12.5 µg/mL
same,MIC,[7],12.5 µg/mL
same,MIC,[8],6.25 µg/mL
same,MIC,E. coli 16702,6.25 µg/mL
same,MIC,E. faecium VanA 419ana,100 µg/mL
same,MIC,P. aeruginosa 16575,6.25 µg/mL
same,MIC,S. aureus MRSA 4591,12.5 µg/mL
same,MIC,S. epidermidis 8700B,3.12 µg/mL
same,MIC,S. haemolyticus 16568,3.12 µg/mL
CCCCCCCCCCCCCCCOP(=O)(CCN(CCCNC(=N)N)CCCNC(=N)N)OC[C@H]1O[C@@H](n2ccc(=O)[nH]c2=O)C(O)C1O (stereo partly shown) [Example 8],MIC,Bacillus subtilis,0.39 µg/mL
same,MIC,[1],25 µg/mL
same,MIC,[2],0.78 µg/mL
same,MIC,[3],0.78 µg/mL
same,MIC,[4],3.12 µg/mL
same,MIC,Streptococcus agalactiae,1.56 µg/mL
same,MIC,[5],6.25 µg/mL
same,MIC,[6],100 µg/mL
same,MIC,[7],1.56 µg/mL
same,MIC,[8],3.12 µg/mL
same,MIC,E. coli 16702,0.78 µg/mL
same,MIC,E. faecium VanA 419ana,50 µg/mL
same,MIC,P. aeruginosa 16575,1.56 µg/mL
same,MIC,S. aureus MRSA 4591,3.12 µg/mL
same,MIC,S. epidermidis 8700B,1.56 µg/mL
same,MIC,S. haemolyticus 16568,1.56 µg/mL
"CCCCCCCCCCCCCOP(=O)(CCN(CCCN)CCCN)OC[C@H]1O[C@@H](n2ccc(=O)[nH]c2=O)C(O)C1O (stereo partly shown) [Example 4, Tridecyl-uridine-5′-yl-2-N-bis (3-aminopropyl)-2-aminoethyl phosphonate]",MIC,Bacillus subtilis,3.12 µg/mL
same,MIC,[1],50 µg/mL
same,MIC,[2],25 µg/mL
same,MIC,[3],3.12 µg/mL
same,MIC,[4],12.5 µg/mL
same,MIC,Streptococcus agalactiae,6.25 µg/mL
same,MIC,[5],50 µg/mL
same,MIC,[6],50 µg/mL
same,MIC,[7],50 µg/mL
same,MIC,[8],50 µg/mL
same,MIC,E. coli 16702,50 µg/mL
same,MIC,E. faecium VanA 419ana,100 µg/mL
same,MIC,P. aeruginosa 16575,25 µg/mL
same,MIC,S. aureus MRSA 4591,25 µg/mL
same,MIC,S. epidermidis 8700B,12.5 µg/mL
same,MIC,S. haemolyticus 16568,6.25 µg/mL
"CCCCCCCCCCCCCCOP(=O)(CCN(CCCN)CCCN)OC[C@H]1O[C@@H](n2ccc(=O)[nH]c2=O)C(O)C1O (stereo partly shown) [Example 3, Tetradecyl-uridine-5′-yl-2-N-bis (3-aminopropyl)-2-aminoethyl phosphonate]",MIC,Bacillus subtilis,0.78 µg/mL
same,MIC,[1],25 µg/mL
same,MIC,[2],6.25 µg/mL
same,MIC,[3],0.78 µg/mL
same,MIC,[4],6.25 µg/mL
same,MIC,Streptococcus agalactiae,3.12 µg/mL
same,MIC,[5],25 µg/mL
same,MIC,[6],200 µg/mL
same,MIC,[7],6.25 µg/mL
same,MIC,[8],50 µg/mL
same,MIC,E. coli 16702,3.12 µg/mL
same,MIC,E. faecium VanA 419ana,100 µg/mL
same,MIC,P. aeruginosa 16575,1.56 µg/mL
same,MIC,S. aureus MRSA 4591,6.25 µg/mL
same,MIC,S. epidermidis 8700B,1.56 µg/mL
same,MIC,S. haemolyticus 16568,1.56 µg/mL
same,skin irritation,rabbits,not an irritant
same,maximum tolerated dose,mice,1500 mg/kg of bodyweight
"CCCCCCCCCCCCCCCOP(=O)(CCN(CCCN)CCCN)OC[C@H]1O[C@@H](n2ccc(=O)[nH]c2=O)C(O)C1O (stereo partly shown) [Example 2, Pentadecyl-uridine-5′-yl-2-N-bis(3-aminopropyl)-2-aminoethyl phosphonate]",MIC,Bacillus subtilis,1.56 µg/mL
same,MIC,[1],50 µg/mL
same,MIC,[2],6.25 µg/mL
same,MIC,[3],3.12 µg/mL
same,MIC,[4],6.25 µg/mL
same,MIC,Streptococcus agalactiae,3.12 µg/mL
same,MIC,[5],6.25 µg/mL
same,MIC,[6],12.5 µg/mL
same,MIC,[7],3.12 µg/mL
same,MIC,[8],3.12 µg/mL
same,MIC,E. coli 16702,6.25 µg/mL
same,MIC,E. faecium VanA 419ana,25 µg/mL
same,MIC,P. aeruginosa 16575,3.12 µg/mL
same,MIC,S. aureus MRSA 4591,12.5 µg/mL
same,MIC,S. epidermidis 8700B,6.25 µg/mL
same,MIC,S. haemolyticus 16568,3.12 µg/mL

# — patent US11135237B2, “Lipophosphonoxins of second generation, and their use” (USTAV ORGANICKE CHEMIE A BIOCHEMIE AV CR, V.V.I., priority 2016, dated 2021)
